Test results reported in the supplement of paper PMC10307832.

Legend:
Assay in all cases: relative viability (nuclei count vs DMSO), 5 days (fraction); higher = more cells survive
[1] = compound: C1CNCCC1C2=CC(=NN2)C3=CC=NC=C3 + NC(=O)Nc1cc(-c2cccc(F)c2)sc1C(=O)N[C@H]1CCCNC1 [AZD7762] (partner 0.2 µM)
Summary of the method: (§1)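 Lung cancer cell lines, seeded in 1536-well plates, were treated the following day by pin tool with a single drug or with five library-drug doses (not always all listed) in √10 steps on top of a fixed anchor-drug dose. Cells were fixed and nuclei stained in one step after 5 days, and nuclei were counted. Relative viability is the nuclei count for treated wells divided by that for vehicle wells, reported as medians of duplicate plates.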

[2] = compound: C1CNCCC1C2=CC(=NN2)C3=CC=NC=C3 + CCNC(=O)c1noc(-c2cc(C(C)C)c(O)cc2O)c1-c1ccc(CN2CCOCC2)cc1 [Luminespib] (partner 0.01 µM)
Summary of the method: as §1

[3] = compound: C[C@@H](N)c1ccc(C(=O)Nc2ccnc3[nH]ccc23)cc1 + CS(=O)(=O)CCNCc1ccc(-c2ccc3ncnc(Nc4ccc(OCc5cccc(F)c5)c(Cl)c4)c3c2)o1 [Lapatinib] (partner 2 µM)
Summary of the method: as §1

[4] = compound: C1CNCCC1C2=CC(=NN2)C3=CC=NC=C3 + C[C@@H](Oc1cc(-c2cnn(C3CCNCC3)c2)cnc1N)c1c(Cl)ccc(F)c1Cl [Crizotinib] (partner 1 µM)
Summary of the method: as §1

| Cell Line | relative viability ([1]; first compound 0.08 µM) | relative viability ([1]; first compound 0.8 µM) | relative viability ([1]; first compound 2.53 µM) | relative viability ([1]; first compound 8 µM) | relative viability ([2]; first compound 0.08 µM) | relative viability ([2]; first compound 0.8 µM) | relative viability ([2]; first compound 2.53 µM) | relative viability ([2]; first compound 8 µM) | relative viability ([3]; first compound 0.04 µM) | relative viability ([3]; first compound 0.1265 µM) | relative viability ([3]; first compound 0.4 µM) | relative viability ([3]; first compound 1.265 µM) | relative viability ([3]; first compound 4 µM) | relative viability ([4]; first compound 0.08 µM) | relative viability ([4]; first compound 0.8 µM) | relative viability ([4]; first compound 2.53 µM) | relative viability ([4]; first compound 8 µM) |
| --- | --- | --- | --- | --- | --- | --- | --- | --- | --- | --- | --- | --- | --- | --- | --- | --- | --- |
| EMC-BAC-2 | 0.892 | 1.14 | 1.16 | 1.12 | 0.882 | 1.16 | 1.28 | 1.14 | 0.86 | 0.896 | 0.898 | 0.986 | 0.897 | 0.705 | 0.772 | 0.751 | 0.793 |
| NCI-H647 | 0.409 | 0.43 | 0.383 | 0.431 | 0.151 | 0.21 | 0.157 | 0.101 | 0.961 | 1.07 | 1.16 | 1.06 | 0.901 | 1.05 | 1.08 | 1.01 | 1.06 |
| LXF-289 | 1.15 | 1.14 | 1.15 | 1.1 | 0.804 | 0.589 | 0.69 | 0.705 | 0.968 | 0.891 | 0.959 | 1.02 | 0.851 | 0.842 | 0.88 | 0.801 | 0.837 |
| LOU-NH91 | 0.797 | 0.739 | 0.853 | 0.773 | 0.368 | 0.339 | 0.334 | 0.399 | 0.701 | 0.749 | 0.801 | 0.575 | 0.709 | 0.718 | 0.733 | 0.78 | 0.742 |
| NCI-H23 | 0.329 | – | 0.326 | 0.308 | – | 0.212 | 0.213 | 0.211 | 0.945 | 1.27 | 1.18 | – | 0.924 | 0.431 | 0.499 | 0.499 | 0.518 |
| NCI-H1993 | 0.874 | 0.631 | 0.858 | 0.681 | 0.748 | 0.918 | 0.79 | 0.981 | 0.791 | 0.858 | – | 0.776 | 0.87 | 0.867 | 0.876 | 0.767 | 0.896 |
| HCC-827 | 0.248 | 0.155 | 0.271 | 0.223 | 0.571 | 0.522 | 0.749 | 0.57 | 0.233 | 0.203 | 0.168 | 0.246 | 0.196 | 0.979 | 0.932 | 1.01 | 0.883 |
| NCI-H650 | 0.853 | 1.07 | 1.09 | 0.949 | 0.65 | 0.705 | 0.958 | 0.744 | 0.626 | 0.837 | 0.859 | – | 0.696 | 0.681 | 0.802 | 0.929 | 0.489 |
